According to patent publication US9993001B2, “Herbicidal composition” (ISHIHARA SANGYO KAISHA, LTD., priority 2014, dated 2018):

Experiments:
Assay type in all cases: in vivo
[1] = system: spotted knotweed (Polygonum lapathifolium L.); assay: Test Example 2: soybean field, soil treatment, metobromuron + S-metolachlor; conditions: Persicaria lapathifolia, soil, read-out: Growth inhibition rate of spotted knotweed (%) Measured value
Description: (§1) When the herbicidal activity in a case where two active ingredients are combined, is larger than the simple sum of the respective herbicidal activities of the two active ingredients (the expected activity), it is called a synergistic effect. The activity expected by the combination of two active ingredients can be calculated as follows (Colby S. R., “Weed”, vol. 15, p. 20-22, 1967). E=α+β−(α×β[…]) where α: growth inhibition rate when treated with x (g/ha) of herbicide X, • β: growth inhibition rate when treated with y (g/ha) of herbicide Y, • E: growth inhibition rate expected when treated with x (g/ha) of herbicide X and y (g/ha) of herbicide Y.
(§2) On the 19th day after treatment, the state of growth of barnyardgrass was visually observed and evaluated in accordance with the following standards. The growth inhibition rate (%) [measured value] and the growth inhibition rate (%) [calculated value] calculated by the Colby's method, are shown in Table 2.
(§3) Growth inhibition rate (%)=inhibition rate) (%) of 0 (equivalent to the non-treated area) to 100 (complete kill) […]
On the 50th day after treatment, the state of growth of spotted knotweed was visually observed and evaluated in the same manner as in Test Example 1.

[2] = system: Nepalese Smartweed (Persicaria nepalensis (Meisn.) H. Gross); assay: Test Example 3: soybean field, soil treatment, metobromuron + S-metolachlor; conditions: soil, read-out: Growth inhibition rate of Nepalese Smartweed (%) Measured value
Description: as §1, §2, §3
On the 50th day after treatment, the state of growth of Nepalese Smartweed (Persicaria nepalensis (Meisn.) H. Gross) which occurred naturally, was visually observed and evaluated in the same manner as in Test Example 1.

[3] = system: common purslane (Portulaca oleracea L.); assay: Test Example 12: corn field, soil treatment, metobromuron + nicosulfuron; conditions: soil, read-out: Growth inhibition rate of common purslane (%) Measured value
Description: as §1, §2, §3
On the 30th day after treatment, the state of growth of common purslane (Portulaca oleracea L.) which occurred naturally, was visually observed and evaluated in the same manner as in Test Example 1.

[4] = system: barnyardgrass (Echinochloa crus-qalli L.); assay: Test Example 21: pot, soil treatment, metobromuron + prometryn; conditions: soil, read-out: Growth inhibition rate of barnyardgrass (%) Measured value
Description: as §1, §2
(§4) Growth inhibition rate (%)=inhibition rate) (%) of 0 (equivalent to the non-treated area) to 100 (complete kill)
Soil was put into a 1/300,000 ha pot, and seeds of barnyardgrass (Echinochloa crus-qalli L.) were sown. On the day after seeding, predetermined amounts of SC containing metobromuron as active ingredient (same as in Test Example 1) and WP containing prometryn as active ingredient (trade name: Gesagard 50, manufactured by Nippon Kayaku Co., Ltd.) were diluted with water corresponding to 1,000 L per hectare and applied for soil treatment.
On the 21st day after treatment, the state of growth of barnyardgrass was visually observed and evaluated in the same manner as in Test Example 1.

[5] = system: common lambsquarters (Chenopodium album L.); assay: Test Example 24: pot, soil treatment, metobromuron + trifluralin; conditions: soil, read-out: Growth inhibition rate of common lambsquarters (%) Measured value
Description: as §1, §2, §4
(§5) Soil was put into a 1/300,000 ha pot, and seeds of common lambsquarters (Chenopodium album L.) were sown. On the day after seeding, predetermined amounts of SC containing metobromuron as active ingredient (same as in Test Example 1) and EC containing trifluralin as active ingredient (same as in Test Example 4) were diluted with water corresponding to 1,000 L per hectare and applied for soil treatment.
On the 21st day after treatment, the state of growth of common lambsquarters was visually observed and evaluated in the same manner as in Test Example 1.

[6] = system: black nightshade (Solanum nigrum L.); assay: Test Example 26: pot, soil treatment, metobromuron + prosulfocarb; conditions: soil, read-out: Growth inhibition rate of black nightshade (%) Measured value
Description: as §1, §2, §4
as §5, with “black nightshade (Solanum nigrum” for “common lambsquarters (Chenopodium album”, “prosulfocarb” for “trifluralin”, “(trade name: BOXER NYUZAI, manufactured by Syngenta)” for “(same as in Test Example 4)”
(§6) On the 21st day after treatment, the state of growth of black nightshade was visually observed and evaluated in the same manner as in Test Example 1.

[7] = system: black nightshade (Solanum nigrum L.); assay: Test Example 27: pot, soil treatment, metobromuron + flufenacet; conditions: soil, read-out: Growth inhibition rate of black nightshade (%) Measured value
Description: as §1, §2, §4
as §5, with “black nightshade (Solanum nigrum” for “common lambsquarters (Chenopodium album”, “prosulfocarb” for “trifluralin”, “(trade name: BOXER NYUZAI, manufactured by Syngenta)” for “(same as in Test Example 4)”
as §6
The test was carried out in the same manner as in Test Example 26 except that EC containing prosulfocarb as active ingredient was changed to SC containing flufenacet as active ingredient (trade name: Cadou, manufactured by Bayer CropScience), to obtain the results as shown in Table 28.

[8] = system: large crabgrass (Digitaria sanquinalis L.); assay: Test Example 29: pot, soil treatment, metobromuron + indanofan; conditions: soil, read-out: Growth inhibition rate of large crabgrass (%) Measured value
Description: as §1, §2, §4
as §5, with “large crabgrass (Digitaria sanquinalis” for “common lambsquarters (Chenopodium album”, “WP” for “EC”, “indanofan” for “trifluralin”, “ingredient” for “ingredient (same as in Test Example 4)”
On the 20th day after treatment, the state of growth of large crabgrass was visually observed and evaluated in the same manner as in Test Example 1.

[9] = system: barnyardgrass (Echinochloa crus-galli L.); assay: Test Example 32: pot, soil treatment, metobromuron + chlorpropham; conditions: soil, read-out: Growth inhibition rate of barnyardgrass (%) Measured value
Description: as §1, §2, §4
as §5, with “barnyardgrass (Echinochloa crus-galli” for “common lambsquarters (Chenopodium album”, “chlorpropham” for “trifluralin”, “1)” for “4)”
On the 26th day after treatment, the state of growth of barnyardgrass was visually observed and evaluated in the same manner as in Test Example 1.

**Q.** With `CON(C)C(=O)Nc1ccc(Br)cc1` [Metobromuron, 3-(4-bromophenyl)-1-methoxy-1-methylurea] as the compound, how does the inhibition at 1000 g/ha [1] read?
**A.** The inhibition at 1000 g/ha was 58%.

**Q.** What about the inhibition at 1500 g/ha [2] of the same compound?
**A.** Its inhibition at 1500 g/ha is 30%.

**Q.** What about the inhibition at 1000 g/ha [3] of the same compound?
**A.** The inhibition at 1000 g/ha was 85%.

**Q.** And the inhibition at 750 g/ha [4]?
**A.** The inhibition at 750 g/ha was 20%.

**Q.** What about the inhibition at 1000 g/ha [4] of the same compound?
**A.** Its inhibition at 1000 g/ha is 43%.

**Q.** And the inhibition at 1500 g/ha [4]?
**A.** Its inhibition at 1500 g/ha is 72%.

**Q.** And the inhibition at 375 g/ha [5]?
**A.** The inhibition at 375 g/ha was 50%.

**Q.** And the inhibition at 250 g/ha [6]?
**A.** Its inhibition at 250 g/ha is 25%.

**Q.** What about the inhibition at 375 g/ha [6] of the same compound?
**A.** The inhibition at 375 g/ha was 50%.

**Q.** And the inhibition at 562.5 g/ha [6]?
**A.** Its inhibition at 562.5 g/ha is 68%.

**Q.** What about the inhibition at 250 g/ha [7] of the same compound?
**A.** Its inhibition at 250 g/ha is 25%.

**Q.** And the inhibition at 375 g/ha [7]?
**A.** Its inhibition at 375 g/ha is 50%.

**Q.** What about the inhibition at 562.5 g/ha [7] of the same compound?
**A.** Its inhibition at 562.5 g/ha is 68%.

**Q.** And the inhibition at 250 g/ha [8]?
**A.** The inhibition at 250 g/ha was 30%.

**Q.** And the inhibition at 375 g/ha [8]?
**A.** Its inhibition at 375 g/ha is 50%.

**Q.** And the inhibition at 562.5 g/ha [8]?
**A.** The inhibition at 562.5 g/ha was 80%.

**Q.** What about the inhibition at 375 g/ha [9] of the same compound?
**A.** The inhibition at 375 g/ha was 40%.
